Test results as given in patent publication EP0831877B1, “METABOLIC EFFECTS OF CERTAIN GLUTATHIONE ANALOGS” (TELIK, INC., priority 1995, dated 1996).

Key:
[1] = in vitro half-life / metabolism in mouse blood; format: in vitro ADME
[2] = tested on: HT-29 (human colon adenocarcinoma) cells; test: modified clonogenic assay, potentiation of chlorambucil cytotoxicity; format: cell-based
Procedure: HT-29 (human colon adenocarcinoma) cells were obtained from Dr. Roberto Ceriani (Cancer Research Fund of Contra Costa County, Walnut Creek, CA) and were used in log phase of growth unless otherwise specified. Chlorambucil (CMB) was obtained from Sigma (St. Louis, MO) and was dissolved in 100% ethanol. All GST inhibitors were dissolved in ethanol, DMSO, or water just prior to use. The same amount of solvent added to culture medium served as the vehicle control.
In a modified clonogenic assay for cytotoxicity, cells were suspended at 2 x 10^5 cells/ml in serum-free medium in the presence of vehicle or inhibitor. […] Cells were incubated for 2 hours, then varying doses of CMB were added. At the end of a second 2-hour incubation, cells were diluted to 7.5-10 x 10^3/ml in serum-containing medium and plated in quadruplicate at 200 µl/well in Microtest III microtiter plates.
Plates were incubated for 6 days and assayed by a modified methylene blue method. Briefly, cells were fixed with 1.25% glutaraldehyde in PBS then stained with 0.05% methylene blue in distilled water. Plates were washed several times in distilled water to remove unretained dye and retained dye was resolubilized in 0.03 N HCl. Plates were read at 650 nm in a Molecular Devices Vmax plate reader (Molecular Devices, Redwood City, CA). […] A dose modification factor (DMF), a measure of potentiation of cytotoxicity, was calculated for each inhibitor by dividing the IC50 value of CMB without inhibitor treatment by the IC50 value for CMB with inhibitor treatment.

[3] = in vitro half-life in human blood; format: in vitro ADME

## CCNC(=O)C(N)CCC(=O)NC(CSCc1ccccc1)C(=O)N[C@@H](C(=O)OCC)c1ccccc1 (stereo partly drawn) [TER300, γE ethyl amide-C(Bz)-R-(-)-ϕG ethyl ester]
HT-29 cell culture
  rate of metabolism: intermediate between that of TER199 and TER278
[1]
  half-life compared with TER199: longer half-lives than TER199
  rate of metabolism: intermediate between that of TER199 and TER278
[2]
  amount required to achieve equivalent potentiation of chlorambucil, relative to TER199: Four times as much
[2]; HT-29, 50 µM, mean ±SD of three experiments
  DMF for chlorambucil toxicity: 1.45 ± 0.16
[3]
  half-life, comparison of the three compounds: approximately the same
